Data as given in ChEMBL document CHEMBL5653631, “A Potent and Selective ULK1 Inhibitor Suppresses Autophagy and Sensitizes Cancer Cells to Nutrient Stress” (iScience, 2018).

Tests used:
[1] = target: Protein-tyrosine kinase 2-beta (Homo sapiens) (UniProt Q14289); assay: Inhibition of human recombinant PYK2 at 40 nM related to control ULK1
[2] = target: MAP kinase-activated protein kinase 2 (Homo sapiens) (UniProt P49137); assay: Inhibition of human recombinant MAPKAPK2 at 40 nM in presence of ATP by radiometric assay relative to control
Sequence of MAP kinase-activated protein kinase 2 (Homo sapiens) (P49137 whole entry, looked up): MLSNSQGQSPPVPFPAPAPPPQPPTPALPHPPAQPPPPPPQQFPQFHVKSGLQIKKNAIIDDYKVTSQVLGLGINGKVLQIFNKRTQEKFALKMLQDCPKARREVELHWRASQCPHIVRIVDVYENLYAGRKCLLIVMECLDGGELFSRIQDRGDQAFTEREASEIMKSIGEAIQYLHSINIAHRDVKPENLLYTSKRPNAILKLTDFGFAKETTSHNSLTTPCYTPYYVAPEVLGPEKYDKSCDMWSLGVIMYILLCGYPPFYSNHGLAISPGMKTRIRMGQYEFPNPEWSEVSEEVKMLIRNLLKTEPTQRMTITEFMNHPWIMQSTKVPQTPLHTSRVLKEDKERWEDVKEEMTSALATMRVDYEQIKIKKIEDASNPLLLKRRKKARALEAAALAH

[3] = target: Vascular endothelial growth factor receptor 1 (Homo sapiens) (UniProt P17948); assay: Inhibition of human recombinant FLT1 at 40 nM related to control ULK1
[4] = target: G protein-coupled receptor kinase 5 (Homo sapiens) (UniProt P34947); assay: Inhibition of human recombinant GPRK5 at 500 nM in presence of ATP by radiometric assay relative to control
Sequence of G protein-coupled receptor kinase 5 (Homo sapiens) (P34947 whole entry, looked up): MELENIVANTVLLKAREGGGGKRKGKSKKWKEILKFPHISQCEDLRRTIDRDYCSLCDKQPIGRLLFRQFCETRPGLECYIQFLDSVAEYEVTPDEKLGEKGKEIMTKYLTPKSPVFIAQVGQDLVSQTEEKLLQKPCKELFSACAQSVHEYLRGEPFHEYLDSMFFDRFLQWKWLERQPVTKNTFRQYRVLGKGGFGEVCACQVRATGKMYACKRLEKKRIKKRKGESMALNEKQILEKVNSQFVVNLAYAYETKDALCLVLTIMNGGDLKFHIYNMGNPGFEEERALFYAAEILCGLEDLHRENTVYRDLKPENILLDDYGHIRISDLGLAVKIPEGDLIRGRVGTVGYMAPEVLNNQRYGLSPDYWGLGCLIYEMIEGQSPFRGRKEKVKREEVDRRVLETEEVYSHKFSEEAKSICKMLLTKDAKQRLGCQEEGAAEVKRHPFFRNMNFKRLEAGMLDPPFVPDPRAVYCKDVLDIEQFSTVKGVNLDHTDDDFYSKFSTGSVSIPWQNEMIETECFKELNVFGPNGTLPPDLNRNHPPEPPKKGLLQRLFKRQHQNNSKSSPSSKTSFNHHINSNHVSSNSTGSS

[5] = target: T1, Serine/threonine-protein kinase TAO2 (Homo sapiens) (UniProt Q9UL54); assay: Inhibition of human recombinant TAO2 at 15 nM in presence of ATP by radiometric assay relative to control
T1 sequence (whole entry): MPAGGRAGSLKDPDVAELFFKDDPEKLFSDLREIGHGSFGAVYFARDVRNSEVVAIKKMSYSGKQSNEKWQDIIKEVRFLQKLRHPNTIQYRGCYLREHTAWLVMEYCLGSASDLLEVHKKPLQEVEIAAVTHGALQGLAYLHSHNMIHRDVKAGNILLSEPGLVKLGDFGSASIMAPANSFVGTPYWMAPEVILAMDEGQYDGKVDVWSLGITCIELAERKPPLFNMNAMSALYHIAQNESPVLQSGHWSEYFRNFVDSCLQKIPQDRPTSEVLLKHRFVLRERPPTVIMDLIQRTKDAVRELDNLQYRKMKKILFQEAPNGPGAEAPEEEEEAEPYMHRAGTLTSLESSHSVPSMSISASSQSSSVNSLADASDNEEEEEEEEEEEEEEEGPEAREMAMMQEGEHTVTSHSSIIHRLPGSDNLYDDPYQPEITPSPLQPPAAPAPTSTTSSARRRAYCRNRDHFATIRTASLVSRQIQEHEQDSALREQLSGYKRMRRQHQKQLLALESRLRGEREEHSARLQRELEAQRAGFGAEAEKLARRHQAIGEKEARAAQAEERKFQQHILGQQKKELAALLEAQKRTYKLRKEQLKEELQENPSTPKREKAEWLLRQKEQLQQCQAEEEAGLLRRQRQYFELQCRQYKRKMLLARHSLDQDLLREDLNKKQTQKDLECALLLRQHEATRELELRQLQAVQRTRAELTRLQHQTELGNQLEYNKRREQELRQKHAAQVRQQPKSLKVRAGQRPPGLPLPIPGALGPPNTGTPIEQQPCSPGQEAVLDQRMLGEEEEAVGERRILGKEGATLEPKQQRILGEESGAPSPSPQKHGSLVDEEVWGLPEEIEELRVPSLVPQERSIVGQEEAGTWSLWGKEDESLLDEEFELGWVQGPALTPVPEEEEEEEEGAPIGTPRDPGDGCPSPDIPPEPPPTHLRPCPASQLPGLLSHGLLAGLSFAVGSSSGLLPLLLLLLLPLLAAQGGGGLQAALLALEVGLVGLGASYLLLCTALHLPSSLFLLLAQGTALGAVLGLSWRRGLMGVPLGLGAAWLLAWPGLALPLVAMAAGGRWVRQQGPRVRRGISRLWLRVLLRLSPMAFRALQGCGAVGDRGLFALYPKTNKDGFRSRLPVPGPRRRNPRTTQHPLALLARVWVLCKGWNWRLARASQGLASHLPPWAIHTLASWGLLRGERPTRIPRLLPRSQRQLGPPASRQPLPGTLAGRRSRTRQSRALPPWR

[6] = target: Serine/threonine-protein kinase PLK1 (Homo sapiens) (UniProt P53350); assay: Inhibition of human recombinant PLK1 at 15 nM related to control ULK1
Sequence of Serine/threonine-protein kinase PLK1 (Homo sapiens) (P53350 whole entry): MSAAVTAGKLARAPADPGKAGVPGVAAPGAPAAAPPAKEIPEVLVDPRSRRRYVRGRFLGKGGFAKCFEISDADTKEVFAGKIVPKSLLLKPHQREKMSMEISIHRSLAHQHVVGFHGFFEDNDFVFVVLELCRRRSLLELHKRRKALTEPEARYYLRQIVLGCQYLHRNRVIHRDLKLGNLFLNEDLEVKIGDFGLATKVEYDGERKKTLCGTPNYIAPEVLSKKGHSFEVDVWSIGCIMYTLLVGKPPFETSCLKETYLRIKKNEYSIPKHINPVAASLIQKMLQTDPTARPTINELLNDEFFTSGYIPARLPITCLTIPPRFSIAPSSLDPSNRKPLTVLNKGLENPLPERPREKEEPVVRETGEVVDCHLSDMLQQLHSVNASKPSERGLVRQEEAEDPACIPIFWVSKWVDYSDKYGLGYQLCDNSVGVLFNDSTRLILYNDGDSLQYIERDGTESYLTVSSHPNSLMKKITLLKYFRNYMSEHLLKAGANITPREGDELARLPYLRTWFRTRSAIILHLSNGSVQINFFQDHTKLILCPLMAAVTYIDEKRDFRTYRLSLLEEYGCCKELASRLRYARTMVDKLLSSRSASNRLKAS

[7] = target: Serine/threonine-protein kinase Nek4 (Homo sapiens) (UniProt P51957); assay: Inhibition of human recombinant NEK4 at 15 nM related to control ULK1
Sequence of Serine/threonine-protein kinase Nek4 (Homo sapiens) (P51957 whole entry, looked up): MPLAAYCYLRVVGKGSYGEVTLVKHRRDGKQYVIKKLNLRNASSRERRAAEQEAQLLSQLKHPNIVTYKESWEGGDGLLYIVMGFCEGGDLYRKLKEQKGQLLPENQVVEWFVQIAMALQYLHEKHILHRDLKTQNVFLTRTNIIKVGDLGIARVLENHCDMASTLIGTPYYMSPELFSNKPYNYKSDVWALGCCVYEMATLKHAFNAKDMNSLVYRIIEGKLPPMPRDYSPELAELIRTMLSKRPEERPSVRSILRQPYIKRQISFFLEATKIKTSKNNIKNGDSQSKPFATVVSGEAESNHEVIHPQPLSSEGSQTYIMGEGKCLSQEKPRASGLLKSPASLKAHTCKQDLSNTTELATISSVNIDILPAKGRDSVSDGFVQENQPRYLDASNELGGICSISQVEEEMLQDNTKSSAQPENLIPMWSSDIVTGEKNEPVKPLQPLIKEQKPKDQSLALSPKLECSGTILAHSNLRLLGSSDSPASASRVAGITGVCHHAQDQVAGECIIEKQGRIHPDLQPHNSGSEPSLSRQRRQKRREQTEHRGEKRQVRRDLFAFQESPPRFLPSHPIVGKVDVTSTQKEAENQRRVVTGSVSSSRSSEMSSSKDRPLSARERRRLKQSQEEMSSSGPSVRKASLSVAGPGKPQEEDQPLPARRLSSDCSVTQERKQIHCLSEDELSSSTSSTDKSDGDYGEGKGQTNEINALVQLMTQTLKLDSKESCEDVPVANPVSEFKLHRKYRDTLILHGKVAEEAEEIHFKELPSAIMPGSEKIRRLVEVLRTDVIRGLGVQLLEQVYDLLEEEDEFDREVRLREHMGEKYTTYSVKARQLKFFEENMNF

[8] = target: Insulin receptor (Homo sapiens) (UniProt P06213); assay: Inhibition of human recombinant INSR at 15 nM related to control ULK1
Sequence of Insulin receptor (Homo sapiens) (P06213 28-758 limits assumed): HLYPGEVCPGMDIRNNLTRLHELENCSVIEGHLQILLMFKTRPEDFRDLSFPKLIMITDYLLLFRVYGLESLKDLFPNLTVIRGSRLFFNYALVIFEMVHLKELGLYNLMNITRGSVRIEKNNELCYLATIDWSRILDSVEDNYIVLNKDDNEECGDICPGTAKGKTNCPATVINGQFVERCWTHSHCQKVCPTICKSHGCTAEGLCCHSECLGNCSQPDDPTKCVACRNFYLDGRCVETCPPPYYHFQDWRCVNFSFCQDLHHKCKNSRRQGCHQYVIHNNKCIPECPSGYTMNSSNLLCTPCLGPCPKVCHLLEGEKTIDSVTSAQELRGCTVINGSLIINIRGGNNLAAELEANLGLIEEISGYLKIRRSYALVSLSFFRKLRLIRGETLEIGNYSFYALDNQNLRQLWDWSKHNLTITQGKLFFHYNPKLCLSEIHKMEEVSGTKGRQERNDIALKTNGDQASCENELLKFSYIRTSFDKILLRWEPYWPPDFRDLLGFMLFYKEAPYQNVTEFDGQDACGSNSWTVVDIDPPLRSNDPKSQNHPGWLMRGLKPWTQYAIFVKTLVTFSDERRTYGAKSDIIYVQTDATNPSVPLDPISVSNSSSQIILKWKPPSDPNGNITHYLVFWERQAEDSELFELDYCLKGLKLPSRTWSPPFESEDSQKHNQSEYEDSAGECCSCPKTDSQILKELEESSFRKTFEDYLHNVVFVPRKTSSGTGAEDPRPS
Sequence of Insulin receptor (Homo sapiens) (P06213 763-1382 limits assumed): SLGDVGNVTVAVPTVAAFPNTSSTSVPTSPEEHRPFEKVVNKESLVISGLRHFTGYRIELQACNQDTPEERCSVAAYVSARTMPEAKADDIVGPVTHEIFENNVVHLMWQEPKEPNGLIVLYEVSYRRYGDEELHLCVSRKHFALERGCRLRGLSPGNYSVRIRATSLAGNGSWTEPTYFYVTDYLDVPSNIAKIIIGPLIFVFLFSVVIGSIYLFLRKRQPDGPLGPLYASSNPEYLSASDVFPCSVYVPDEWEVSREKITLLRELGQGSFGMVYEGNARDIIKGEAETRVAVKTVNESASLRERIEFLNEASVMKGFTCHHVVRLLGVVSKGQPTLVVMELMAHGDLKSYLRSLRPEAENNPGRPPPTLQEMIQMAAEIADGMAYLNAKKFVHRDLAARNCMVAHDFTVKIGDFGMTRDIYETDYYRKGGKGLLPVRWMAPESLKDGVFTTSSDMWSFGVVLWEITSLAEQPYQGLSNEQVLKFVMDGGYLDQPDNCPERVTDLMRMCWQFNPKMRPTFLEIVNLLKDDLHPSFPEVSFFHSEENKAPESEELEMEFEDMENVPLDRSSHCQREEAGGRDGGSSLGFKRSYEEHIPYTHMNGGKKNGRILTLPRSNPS

[9] = target: Tyrosine-protein kinase JAK1 (Homo sapiens) (UniProt P23458); assay: Inhibition of human recombinant JAK1 at 15 nM related to control ULK1
[10] = target: PAS domain-containing serine/threonine-protein kinase (Homo sapiens) (UniProt Q96RG2); assay: Inhibition of human recombinant PASK at 15 nM related to control ULK1
[11] = target: Calcium/calmodulin-dependent protein kinase type 1D (Homo sapiens) (UniProt Q8IU85); assay: Inhibition of human recombinant CaMK1d at 15 nM related to control ULK1
Sequence of Calcium/calmodulin-dependent protein kinase type 1D (Homo sapiens) (Q8IU85 whole entry, looked up): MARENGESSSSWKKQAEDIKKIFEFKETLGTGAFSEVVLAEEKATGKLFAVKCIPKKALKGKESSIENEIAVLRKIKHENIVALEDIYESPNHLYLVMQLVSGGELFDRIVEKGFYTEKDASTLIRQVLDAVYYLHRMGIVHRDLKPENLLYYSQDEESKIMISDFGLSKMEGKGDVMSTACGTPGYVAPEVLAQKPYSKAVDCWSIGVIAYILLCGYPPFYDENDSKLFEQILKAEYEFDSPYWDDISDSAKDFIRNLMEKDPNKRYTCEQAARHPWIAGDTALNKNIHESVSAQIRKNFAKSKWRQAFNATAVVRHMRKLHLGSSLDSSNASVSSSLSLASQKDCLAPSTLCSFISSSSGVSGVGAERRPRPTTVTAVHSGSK

[12] = target: Protein kinase C beta type (Homo sapiens) (UniProt P05771); assay: Inhibition of human recombinant PKCb at 15 nM related to control ULK1
[13] = target: Cyclin-dependent kinase 3 (Homo sapiens) (UniProt Q00526); assay: Inhibition of human recombinant CDK3 at 15 nM related to control ULK1
Sequence of Cyclin-dependent kinase 3 (Homo sapiens) (Q00526 whole entry, looked up): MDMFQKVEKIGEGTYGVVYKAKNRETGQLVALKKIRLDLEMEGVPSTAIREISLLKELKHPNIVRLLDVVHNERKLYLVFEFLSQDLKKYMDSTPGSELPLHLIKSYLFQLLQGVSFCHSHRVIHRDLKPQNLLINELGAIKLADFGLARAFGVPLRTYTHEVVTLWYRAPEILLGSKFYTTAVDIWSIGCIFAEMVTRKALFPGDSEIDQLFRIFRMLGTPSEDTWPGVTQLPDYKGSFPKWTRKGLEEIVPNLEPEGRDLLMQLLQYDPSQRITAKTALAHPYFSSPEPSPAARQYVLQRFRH

[14] = target: T2, MAP kinase-activated protein kinase 5 (Homo sapiens) (UniProt Q8IW41); assay: Inhibition of human recombinant MAPKAPK5 at 15 nM related to control ULK1
T2 sequence (whole entry): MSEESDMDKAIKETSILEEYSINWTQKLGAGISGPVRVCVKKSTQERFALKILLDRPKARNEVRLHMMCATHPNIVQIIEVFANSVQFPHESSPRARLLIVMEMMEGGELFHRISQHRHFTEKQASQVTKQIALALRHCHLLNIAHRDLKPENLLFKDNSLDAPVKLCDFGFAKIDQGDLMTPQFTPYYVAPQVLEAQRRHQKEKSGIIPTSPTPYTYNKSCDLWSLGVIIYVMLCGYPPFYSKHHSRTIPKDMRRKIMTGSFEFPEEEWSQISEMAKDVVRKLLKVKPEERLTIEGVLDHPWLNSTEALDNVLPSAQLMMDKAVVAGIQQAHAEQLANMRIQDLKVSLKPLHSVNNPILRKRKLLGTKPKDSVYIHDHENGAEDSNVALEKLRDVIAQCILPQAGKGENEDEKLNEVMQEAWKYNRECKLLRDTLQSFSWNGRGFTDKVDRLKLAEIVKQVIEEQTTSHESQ

[15] = target: Serine/threonine-protein kinase pim-3 (Homo sapiens) (UniProt Q86V86); assay: Inhibition of human recombinant PIM3 at 15 nM related to control ULK1

O=C(N[C@@H](C1CC1)C(F)(F)F)c1cc(-c2cnn3cc(-c4ccc(F)cc4)cnc23)cs1
fold change (FC) [1]: 0.04
inhibition [2]: 0%
fold change (FC) [3]: 0.25

CNC(=O)c1ccccc1Oc1nc(Nc2cc(OC)c(OC)c(OC)c2)ncc1Br
inhibition [4]: 1%

CC(C)[C@H](NC(=O)c1cc(-c2cnn3cc(-c4ccc(OCCN5CCCCC5)cc4)cnc23)cs1)C(F)(F)F
inhibition [5]: 0%
fold change (FC) [6]: 0.01
fold change (FC) [7]: 0.07
fold change (FC) [8]: 0
fold change (FC) [9]: 0
fold change (FC) [10]: 0
fold change (FC) [11]: 0
fold change (FC) [12]: 0
fold change (FC) [13]: 0.06
fold change (FC) [14]: 0
fold change (FC) [15]: 0.02
